Test results as given in the OligoGym collection.
These antisense oligonucleotides have a phosphorothioate backbone; sugars and methylation of C are not fully specified.
Further: test concentration or dose not given here.

The sequences below were run against GNA11. Conditions: ASO.
CGTTGATCCGCTTGGACT was tested, and the remaining target (mRNA or protein) (fraction of control) was ≥ 1. Sequence CCATCCGGTTCTCGTTGT has a remaining target (mRNA or protein) (fraction of control) of 0.81. In the case of CAGGGTCTTGATGGCACT, the remaining target (mRNA or protein) (fraction of control) was ≥ 1. For AAGTAGTCCACCAGGTGC, the remaining target (mRNA or protein) (fraction of control) was ≥ 1. TCAGGTTCAGCTGCAGGA showed a remaining target (mRNA or protein) (fraction of control) of 0.97. CCAGGTCGAAAGGGTACT was tested, and the remaining target (mRNA or protein) (fraction of control) was ≥ 1. CACGTGAAGTGTGAGTAG was tested, and the remaining target (mRNA or protein) (fraction of control) was ≥ 1. With TACTTGGCAGAGTCGGAG the remaining target (mRNA or protein) (fraction of control) was 0.66. With CAGGAGCGCATTGGCCTT the remaining target (mRNA or protein) (fraction of control) was ≥ 1. With CGGATCATGGCCTGCATG the remaining target (mRNA or protein) (fraction of control) was 0.99. With GTCAGGTAGTACTTGGCA the remaining target (mRNA or protein) (fraction of control) was 0.24. ATCTTGTCCTCCAGCAGG was tested, and the remaining target (mRNA or protein) (fraction of control) was 0.96. For GCAGGTAGCCCAAGGTGG, the remaining target (mRNA or protein) (fraction of control) was 0.8. In the case of TCGATGATGCCGGTGGTG, the remaining target (mRNA or protein) (fraction of control) was ≥ 1. Sequence ATCCGGTTCTCGTTGTCC has a remaining target (mRNA or protein) (fraction of control) of 0.78. Work on ATCCGCTTGGACTCCTTC yielded a remaining target (mRNA or protein) (fraction of control) of 0.83. Work on GCGAGTACAGGATCTTGT yielded a remaining target (mRNA or protein) (fraction of control) of 0.83. With TAGAGGATCTTGAGCGTC the remaining target (mRNA or protein) (fraction of control) was ≥ 1. In the case of CGAGAAACATGATGGATG, the remaining target (mRNA or protein) (fraction of control) was ≥ 1. GATGGACTCCAGAGTCAT was tested, and the remaining target (mRNA or protein) (fraction of control) was ≥ 1. For CGCCTGCGGTCGTAGCAT, the remaining target (mRNA or protein) (fraction of control) was ≥ 1. ATCCGGAAGATGATGTTC was tested, and the remaining target (mRNA or protein) (fraction of control) was ≥ 1. For GGAGGAGTTCTGGAACCA, the remaining target (mRNA or protein) (fraction of control) was 0.36. Work on TCCTGGATGCCCGGGTCC yielded a remaining target (mRNA or protein) (fraction of control) of 0.7. With CGCATCTGCTTGATGAAC the remaining target (mRNA or protein) (fraction of control) was ≥ 1. For CCCGCCGCAGCTGCTTCT, the remaining target (mRNA or protein) (fraction of control) was 0.42. For CTCATCGCTCAGGCAACA, the remaining target (mRNA or protein) (fraction of control) was 0.39. With ATCTGCTTGATGAACGTG the remaining target (mRNA or protein) (fraction of control) was ≥ 1. For ACTGACGTACTGATGCTC, the remaining target (mRNA or protein) (fraction of control) was 0.64. In the case of GTAGGTGATGATGGTCCG, the remaining target (mRNA or protein) (fraction of control) was ≥ 1. With CTTGAGCTCGCGCCGGGC the remaining target (mRNA or protein) (fraction of control) was 0.69. GGTCAACGTCGGTCAGGT gave a remaining target (mRNA or protein) (fraction of control) of 0.82. TGCTCGTACTTGTAGAGG showed a remaining target (mRNA or protein) (fraction of control) of 0.93. With GCTGAGGGCGACGAGAAA the remaining target (mRNA or protein) (fraction of control) was 0.25. CTGGATGCCCGGGTCCTC was tested, and the remaining target (mRNA or protein) (fraction of control) was ≥ 1. With TAGACGAGCTTGGTGAAG the remaining target (mRNA or protein) (fraction of control) was ≥ 1. In the case of TGTTCTGGTAGACGAGCT, the remaining target (mRNA or protein) (fraction of control) was ≥ 1. Work on GCCATGATGGACTCCAGA yielded a remaining target (mRNA or protein) (fraction of control) of 0.25. GCTGGTACTCGCGCCTGC was tested, and the remaining target (mRNA or protein) (fraction of control) was 0.59. GCCCGTGCCGAGCAGCAG was tested, and the remaining target (mRNA or protein) (fraction of control) was ≥ 1. In the case of TTGGCCTTGTTCTGCTCG, the remaining target (mRNA or protein) (fraction of control) was ≥ 1. For GCAGCAGCAGCTTGAGCT, the remaining target (mRNA or protein) (fraction of control) was ≥ 1. Sequence ACGGCCGCGAACACGAAG has a remaining target (mRNA or protein) (fraction of control) of 0.94. ACCAGATTGTACTCCTTC was tested, and the remaining target (mRNA or protein) (fraction of control) was ≥ 1. CGACTCCACCAGGACTTG was tested, and the remaining target (mRNA or protein) (fraction of control) was 0.6. With CTCGATCTCGGCGTTGAT the remaining target (mRNA or protein) (fraction of control) was ≥ 1. In the case of GGTGGTGGGCACGCGGAC, the remaining target (mRNA or protein) (fraction of control) was ≥ 1. Sequence CGTCCTGCTGGGTGGGCA has a remaining target (mRNA or protein) (fraction of control) of 0.6. Work on TGTTCTCCAGGTCGAAAG yielded a remaining target (mRNA or protein) (fraction of control) of 0.67. For TGGCGGTGAAGATGTTCT, the remaining target (mRNA or protein) (fraction of control) was ≥ 1. With TGTCACGTTCTCAAAGCA the remaining target (mRNA or protein) (fraction of control) was ≥ 1. GCCTTGTTCTGCTCGTAC gave a remaining target (mRNA or protein) (fraction of control) of 0.75. In the case of TGTCCTCCTCCGAGTAGC, the remaining target (mRNA or protein) (fraction of control) was ≥ 1. GATCCACTTCCTCCGCTC showed a remaining target (mRNA or protein) (fraction of control) of 0.41. ATGTTCTCCGTGTCGGTG was tested, and the remaining target (mRNA or protein) (fraction of control) was ≥ 1. In the case of TGAGGAAGAGGATGACGG, the remaining target (mRNA or protein) (fraction of control) was ≥ 1. Sequence GATGAACTCCCGCGCCGC has a remaining target (mRNA or protein) (fraction of control) of 0.48. In the case of GATGGTGTCCTTCACGGC, the remaining target (mRNA or protein) (fraction of control) was ≥ 1. Work on GGTCACCTTCTCCACGTC yielded a remaining target (mRNA or protein) (fraction of control) of 0.73. AGATGATGTTCTCCAGGT was tested, and the remaining target (mRNA or protein) (fraction of control) was ≥ 1. In the case of GATGCTCGAAGGTGGTCA, the remaining target (mRNA or protein) (fraction of control) was 0.67. GGTCCGGAACAGGGCTTT was tested, and the remaining target (mRNA or protein) (fraction of control) was 0.74. In the case of GTAGATGATCTTGTCGCT, the remaining target (mRNA or protein) (fraction of control) was ≥ 1. TGTAGAGGATCTTGAGCG was tested, and the remaining target (mRNA or protein) (fraction of control) was ≥ 1. For ATGATGGATGTCACGTTC, the remaining target (mRNA or protein) (fraction of control) was ≥ 1. ACGTGCTCTTCCCGCTCT showed a remaining target (mRNA or protein) (fraction of control) of 0.72. AGGGCTTTGCTCTCCTCC was tested, and the remaining target (mRNA or protein) (fraction of control) was 0.23. GGTTCAGGTCCACGAACA gave a remaining target (mRNA or protein) (fraction of control) of 0.29. CTTGATGGCACTGACGTA showed a remaining target (mRNA or protein) (fraction of control) of 0.22. With GACTCCTTCACCTCATCG the remaining target (mRNA or protein) (fraction of control) was 0.85.
